System: subjects with idiopathic hypersomnia (IH)
Test: Part 6 POC IH: treatment-emergent adverse events, single doses, crossover
Conditions: N = 8
Protocol: Part 6 consisted of a 4-way, 4-period crossover study design in approximately 8 subjects (2 subjects per sequence; minimum of 4 subjects with 1 subject per sequence). […] Treatments were administered under fasted state.
Subjects were randomized to 1 of 4 sequences. […] No food was given for at least 3 hours after dose administration (i.e., fast can be broken after the 3-hour PK time point is collected). Water was allowed ad libitum except for 1 hour before and 1 hour after study drug administration. Safety assessments including AEs, safety ECGs, vital signs, and clinical laboratory tests were conducted, and plasma PK samples were collected.
Adverse events (AEs) and serious adverse events (SAEs) were monitored continuously until the completion of the study.
Eight subjects with IH were dosed in Part 6 (POC in IH) in a randomized 4-sequence 4-period cross-over design.

CS(=O)(=O)N[C@H]1CCCN2C(=O)COc3ccccc3C3CCC(CC3)OCC12 (stereo partly drawn) [Compound A, N-[(4S,4aR,7α,10α)-1,2,3,4,4a,5,7,8,9,10,16,17-dodecahydro-17-oxo-7,10-ethanopyrido[1,2-d][1,7,4]benzodioxaazacyclotridecin-4-yl]methanesulfonamide]
6 (75.0) n (%): Any TEAE (5 mg single dose) | Subjects with at least one TEAE (5 mg single dose) | TEAE by Highest Severity: Mild (5 mg single dose)
2 (25.0) n (%): Drug Related TEAE by Preferred Term: Pollakiuria (5 mg single dose) | Subjects with at least one treatment-related TEAE (5 mg single dose) | TEAE by Highest Relationship: Related (5 mg single dose) | TEAE by Preferred Term: Dizziness (5 mg single dose) | TEAE by Preferred Term: Pollakiuria (5 mg single dose) | TEAE by Preferred Term: Vessel puncture site bruise (5 mg single dose) | Drug Related TEAE by Preferred Term: Pollakiuria (12 mg single dose) | TEAE by Highest Relationship: Not Related (12 mg single dose) | TEAE by Preferred Term: Pollakiuria (12 mg single dose)
3 (37.5) n (%): Subjects with at least one treatment-related TEAE (12 mg single dose) | TEAE by Highest Relationship: Related (12 mg single dose)
5 (62.5) n (%): Any TEAE (12 mg single dose) | Subjects with at least one TEAE (12 mg single dose) | TEAE by Highest Severity: Mild (12 mg single dose)
1 (12.5) n (%): Drug Related TEAE by Preferred Term: Micturition urgency (5 mg single dose) | Drug Related TEAE by Preferred Term: Middle insomnia (5 mg single dose) | TEAE by Preferred Term: Headache (5 mg single dose) | TEAE by Preferred Term: Micturition urgency (5 mg single dose) | TEAE by Preferred Term: Middle insomnia (5 mg single dose) | TEAE by Preferred Term: Nausea (5 mg single dose) | TEAE by Preferred Term: Neck pain (5 mg single dose) | TEAE by Preferred Term: Skin irritation (5 mg single dose) | TEAE by Preferred Term: Urinary tract infection (5 mg single dose) | Drug Related TEAE by Preferred Term: Dysuria (12 mg single dose) | Drug Related TEAE by Preferred Term: Middle insomnia (12 mg single dose) | TEAE by Preferred Term: Blood creatine phosphokinase increased (12 mg single dose) | TEAE by Preferred Term: Blood creatinine increased (12 mg single dose) | TEAE by Preferred Term: Dysuria (12 mg single dose) | TEAE by Preferred Term: Headache (12 mg single dose) | TEAE by Preferred Term: Middle insomnia (12 mg single dose) | TEAE by Preferred Term: Nausea (12 mg single dose) | TEAE by Preferred Term: Phlebitis (12 mg single dose) | TEAE by Preferred Term: Presyncope (12 mg single dose) | TEAE by Preferred Term: Steatorrhoea (12 mg single dose)
4 (50.0) n (%): TEAE by Highest Relationship: Not Related (5 mg single dose)
0 n (%): AE Leading to Study Drug Discontinuation (5 mg single dose) | Any SAEs (5 mg single dose) | Death (5 mg single dose) | Drug Related TEAE by Preferred Term: Cold sweat (5 mg single dose) | Drug Related TEAE by Preferred Term: Dizziness (5 mg single dose) | Drug Related TEAE by Preferred Term: Dysuria (5 mg single dose) | Drug Related TEAE by Preferred Term: Feeling jittery (5 mg single dose) | Drug Related TEAE by Preferred Term: Insomnia (5 mg single dose) | Drug Related TEAE by Preferred Term: Palpitations (5 mg single dose) | Drug Related TEAE by Preferred Term: Supraventricular extrasystoles (5 mg single dose) | Drug Related TEAE by Preferred Term: Tachycardia (5 mg single dose) | Drug Related TEAE by Preferred Term: Visual impairment (5 mg single dose) | TEAE by Highest Severity: Moderate (5 mg single dose) | TEAE by Highest Severity: Severe (5 mg single dose) | TEAE by Preferred Term: Blood creatine phosphokinase increased (5 mg single dose) | TEAE by Preferred Term: Blood creatinine increased (5 mg single dose) | TEAE by Preferred Term: Cold sweat (5 mg single dose) | TEAE by Preferred Term: Dermatitis contact (5 mg single dose) | TEAE by Preferred Term: Dysuria (5 mg single dose) | TEAE by Preferred Term: Epistaxis (5 mg single dose) | TEAE by Preferred Term: Feeling jittery (5 mg single dose) | TEAE by Preferred Term: Insomnia (5 mg single dose) | TEAE by Preferred Term: Palpitations (5 mg single dose) | TEAE by Preferred Term: Phlebitis (5 mg single dose) | TEAE by Preferred Term: Presyncope (5 mg single dose) | TEAE by Preferred Term: Steatorrhoea (5 mg single dose) | TEAE by Preferred Term: Supraventricular extrasystoles (5 mg single dose) | TEAE by Preferred Term: Tachycardia (5 mg single dose) | TEAE by Preferred Term: Vessel puncture site pain (5 mg single dose) | TEAE by Preferred Term: Visual impairment (5 mg single dose) | TEAE by Preferred Term: Vomiting (5 mg single dose) | AE Leading to Study Drug Discontinuation (12 mg single dose) | Any SAEs (12 mg single dose) | Death (12 mg single dose) | Drug Related TEAE by Preferred Term: Cold sweat (12 mg single dose) | Drug Related TEAE by Preferred Term: Dizziness (12 mg single dose) | Drug Related TEAE by Preferred Term: Feeling jittery (12 mg single dose) | Drug Related TEAE by Preferred Term: Insomnia (12 mg single dose) | Drug Related TEAE by Preferred Term: Micturition urgency (12 mg single dose) | Drug Related TEAE by Preferred Term: Palpitations (12 mg single dose) | Drug Related TEAE by Preferred Term: Supraventricular extrasystoles (12 mg single dose) | Drug Related TEAE by Preferred Term: Tachycardia (12 mg single dose) | Drug Related TEAE by Preferred Term: Visual impairment (12 mg single dose) | TEAE by Highest Severity: Moderate (12 mg single dose) | TEAE by Highest Severity: Severe (12 mg single dose) | TEAE by Preferred Term: Cold sweat (12 mg single dose) | TEAE by Preferred Term: Dermatitis contact (12 mg single dose) | TEAE by Preferred Term: Dizziness (12 mg single dose) | TEAE by Preferred Term: Epistaxis (12 mg single dose) | TEAE by Preferred Term: Feeling jittery (12 mg single dose) | TEAE by Preferred Term: Insomnia (12 mg single dose) | TEAE by Preferred Term: Micturition urgency (12 mg single dose) | TEAE by Preferred Term: Neck pain (12 mg single dose) | TEAE by Preferred Term: Palpitations (12 mg single dose) | TEAE by Preferred Term: Skin irritation (12 mg single dose) | TEAE by Preferred Term: Supraventricular extrasystoles (12 mg single dose) | TEAE by Preferred Term: Tachycardia (12 mg single dose) | TEAE by Preferred Term: Urinary tract infection (12 mg single dose) | TEAE by Preferred Term: Vessel puncture site bruise (12 mg single dose) | TEAE by Preferred Term: Vessel puncture site pain (12 mg single dose) | TEAE by Preferred Term: Visual impairment (12 mg single dose) | TEAE by Preferred Term: Vomiting (12 mg single dose) | AE Leading to Study Drug Discontinuation (25 mg single dose)

— patent US20250186405A1, “Compound For Use In Treating Narcolepsy” (Alkermes, Inc., priority 2023, published 2025)
